This is an account of results in patent US20070219155A1, “TREATING TRINUCLEOTIDE REPEAT CONDITIONS” (priority 2006, published 2007).

Molecules are shown by their SMILES.

In data set [1] the test system is human HD fibroblasts. As to the method: Human HD fibroblasts (Coriell Cell Repositories) were maintained in MEM medium with 20% FBS. Cells were grown until they reached 70% confluence and then treated with the indicated concentrations of H2O2 for 30 min. The cells were washed, the medium was replaced, and the cells were allowed to recover for three days before repeating the treatment one or two more times. After the third treatment, the cells were collected and DNA was isolated. CAG repeat sizing was performed as described below.

For data set [2], the system named is lymphoblast cell lines obtained from HD patients. Particulars: FIG. 2D.
Procedure: DNA was purified from mouse tissues or cultured human fibroblasts (Kovtun et al., Hum. Mol. Genet., 13:3057-3068 (2004)) and used for PCR amplification of various microsatellites. CAG repeats at the hHD locus were amplified as described previously (Kovtun and McMurray, Nat. Genet., 27:407-411 (2001); Kovtun et al., Hum. Mol. Genet., 13:3057-3068 (2004)). […] One primer in each PCR amplification was labeled with FAM-6, and fluorescent products were analyzed using an ABI prism 3700 DNA analyzer instrument and the GeneMapper software v3 (Applied Biosystems).
It was then determined whether peroxide treatment could directly lead to CAG expansion at the hHD locus in human HD fibroblasts in response to oxidative damage.
The subject of data set [3] is human HD fibroblasts. Nature of the data set: Comet assay of H2O2-treated cells. The note with it: cultured cells; FIG. 2F.

With `OO` [H2O2, hydrogen peroxide], the cell viability result in data set [1] is “did not affect cell viability”. Besides, the “expansion of CAG repeats at the hHD locus” value in data set [1] (low (sub-lethal) doses, 30 min treatment repeated up to three times, FIG. 2C) was “uniformly led to expansion of CAG at intermediate or disease-length alleles”; in data set [2], “expansions were observed”. In addition, in data set [1] (same peroxide-treated cells, FIG. 2E), the “expansion of GAA repeats (chromosome 5 locus)” value is on record as “expansion was not detected”. Moreover, in data set [3], the “single strand breaks (comet assay)” value is reported as “dose-dependent increase in single strand breaks”.
